Assay results reported in patent US20100069668A1, “5-[(2R)-[2-[2-(2,2,2-TRIFLUOROETHOXY)PHENOXY]ETHYL]AMINO]PROPYL]-2-METHOXYBENZENESULFONAMIDE” (priority 2006, published 2010).
Counter-ions that a name gives are not always drawn.

Legend:
[1] = system: α1 receptor; test: antagonism of norepinephrine-induced contraction of isolated vas deferens smooth muscle; type: cell-based; conditions: isolated rat vas deferens
Method: (§1) The antagonism and antagonistic selectivity of α1 receptor of different isolated smooth muscle specimens treated with the compound having formula (I).
(§2) Methods: a 24-hour fasting rat was hit on the head to induce coma, and quickly dissected the abdominal cavity, its urethra, aorta and vas deferens were respectively taken out and recorded the contraction curve with instruments, then the different concentrations and volumes of norepinephrine were added to get noradrenalin's accumulation curve, rinsed immediately to return to baseline, then different concentrations of test drugs were added. Noradrenaline was added repeatedly after 5˜8 minute to obtain average contractile response curve of noradrenalin under different concentrations of antagonist, the contraction pD2 of noradrenaline on the urethra, aorta, vas deferens under different concentrations of samples for test was calculated, the pA2 value for antagonism of contraction caused by the samples against norepinephrine was obtain by regressing with the concentration of test samples and pD2.
(§3) Results: pA2 value for the contraction of the different organizations inhibition of smooth muscle specimens induced by the hydrochlorate of compound I and tamsulosin hydrochloride against norepinephrine is shown in Table 1. […]

[2] = system: α1 receptor; test: antagonism of norepinephrine-induced contraction of isolated urethra smooth muscle; type: cell-based, rat; conditions: for pA2 for antagonism of norepinephrine-induced contraction, urethra: isolated rat urethra; for the intensity ratio of the contraction caused by inhibiting norepinephrine, urethra/aorta / the intensity ratio of the contraction caused by inhibiting norepinephrine, urethra/vas deferens: calculated by pA2 value
Method: as §1, §2
Results: pA2 value for the contraction of the different organizations inhibition of smooth muscle specimens induced by the hydrochlorate of compound I and tamsulosin hydrochloride against norepinephrine is shown in Table 1. The intensity ratio of contraction inhibitive effect of urethra and aorta, urethra and vas deferens smooth muscle, caused by the sample against noradrenaline is disclosed in table 2, which is calculated by pA2 value.

[3] = system: α1 receptor; test: antagonism of norepinephrine-induced contraction of isolated aorta smooth muscle; type: cell-based; conditions: isolated rat aorta
Method: as §1, §2, §3

SMILES | pA2 value for the contraction caused by inhibiting norepinephrine, vas deferens [1] | pA2 for antagonism of norepinephrine-induced contraction, urethra [2] | the intensity ratio of the contraction caused by inhibiting norepinephrine, urethra/aorta [2] | the intensity ratio of the contraction caused by inhibiting norepinephrine, urethra/vas deferens [2] | pA2 value for the contraction caused by inhibiting norepinephrine, aorta [3]
CCOc1ccccc1OCCN[C@H](C)Cc1ccc(OC)c(S(N)(=O)=O)c1 [Tamsulosin hydrochloride] | 10.12 | 9.22 | 3.83 | 0.123 | 8.63
COc1ccc(C[C@@H](C)NCCOc2ccccc2OCC(F)(F)F)cc1S(N)(=O)=O [the hydrochlorate of compound I, 5-[(2R)-[2-[2-[2-(2,2,2-trifluoroethoxy)phenoxy]ethyl]amino]propyl]-2-methoxybenzenesulfonamide] | 10.08 | 11.00 | 607.31 | 8.120 | 8.21
